Test results as given in ChEMBL document CHEMBL4316607, “Discovery of NR2B-selective antagonists via scaffold hopping and pharmacokinetic profile optimization” (Bioorg Med Chem Lett, 2019).
pIC50: −log10 of the molar value.

Experiments:
[1] = biological target: Glutamate receptor ionotropic, NMDA 2B (Rattus norvegicus, UniProt Q00960); assay: Displacement of [3H]-ifenprodil from NR2B receptor in rat brain cerebral cortex membranes incubated for 120 mins by liquid scintillation counting method; assay type: cell membranes
Sequence of Glutamate receptor ionotropic, NMDA 2B (Rattus norvegicus, UniProt Q00960) (Q00960 whole entry): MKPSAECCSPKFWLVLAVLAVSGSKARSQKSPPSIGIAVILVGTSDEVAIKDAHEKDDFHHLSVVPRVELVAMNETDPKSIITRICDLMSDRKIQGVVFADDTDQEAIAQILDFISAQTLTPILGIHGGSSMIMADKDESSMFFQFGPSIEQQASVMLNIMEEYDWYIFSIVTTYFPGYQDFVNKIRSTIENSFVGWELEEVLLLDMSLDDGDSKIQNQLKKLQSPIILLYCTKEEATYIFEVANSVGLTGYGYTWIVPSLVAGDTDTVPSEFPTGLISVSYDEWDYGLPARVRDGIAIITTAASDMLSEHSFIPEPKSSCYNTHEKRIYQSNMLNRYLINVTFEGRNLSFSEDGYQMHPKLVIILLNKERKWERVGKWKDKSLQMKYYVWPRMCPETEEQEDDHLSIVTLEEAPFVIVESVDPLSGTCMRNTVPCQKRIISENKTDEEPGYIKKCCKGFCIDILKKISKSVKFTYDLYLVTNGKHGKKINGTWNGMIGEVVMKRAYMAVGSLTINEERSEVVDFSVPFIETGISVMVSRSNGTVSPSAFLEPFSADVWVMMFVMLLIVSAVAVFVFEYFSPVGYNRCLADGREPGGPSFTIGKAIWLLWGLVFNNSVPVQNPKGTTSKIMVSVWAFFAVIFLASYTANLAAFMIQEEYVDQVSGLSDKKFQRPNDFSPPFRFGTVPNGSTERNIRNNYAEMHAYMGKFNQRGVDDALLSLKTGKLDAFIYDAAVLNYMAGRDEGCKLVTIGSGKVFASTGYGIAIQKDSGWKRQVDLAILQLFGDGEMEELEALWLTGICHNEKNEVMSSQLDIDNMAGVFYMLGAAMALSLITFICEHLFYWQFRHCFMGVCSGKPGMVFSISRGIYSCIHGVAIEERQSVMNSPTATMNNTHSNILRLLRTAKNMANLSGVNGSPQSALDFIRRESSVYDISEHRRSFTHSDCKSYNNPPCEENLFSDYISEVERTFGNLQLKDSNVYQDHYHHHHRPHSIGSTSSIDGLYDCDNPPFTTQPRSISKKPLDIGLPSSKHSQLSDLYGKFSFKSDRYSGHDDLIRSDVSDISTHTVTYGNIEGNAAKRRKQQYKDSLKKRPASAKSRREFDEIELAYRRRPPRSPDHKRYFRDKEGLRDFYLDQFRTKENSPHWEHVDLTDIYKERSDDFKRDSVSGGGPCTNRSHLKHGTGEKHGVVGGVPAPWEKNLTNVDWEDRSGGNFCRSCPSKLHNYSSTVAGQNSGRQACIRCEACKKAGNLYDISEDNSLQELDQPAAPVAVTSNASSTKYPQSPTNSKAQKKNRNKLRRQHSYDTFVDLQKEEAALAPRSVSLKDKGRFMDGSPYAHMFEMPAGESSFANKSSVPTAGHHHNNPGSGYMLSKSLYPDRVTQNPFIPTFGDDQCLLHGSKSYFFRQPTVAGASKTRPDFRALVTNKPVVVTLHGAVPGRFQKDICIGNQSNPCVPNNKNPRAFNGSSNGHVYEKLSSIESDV

[2] = biological target: Glutamate receptor ionotropic, NMDA 2B (Mus musculus, UniProt P35438+Q01097); assay: Antagonist activity at mouse NR2B receptor expressed in HEK293 cells co-expressing NR1 subunit assessed as reduction in glutamic acid/glycine-induced calcium ion influx by fluorescence based assay; assay type: cell-based
Sequence of Glutamate receptor ionotropic, NMDA 2B (Mus musculus, UniProt P35438+Q01097) (Q01097 whole entry, one chain of several): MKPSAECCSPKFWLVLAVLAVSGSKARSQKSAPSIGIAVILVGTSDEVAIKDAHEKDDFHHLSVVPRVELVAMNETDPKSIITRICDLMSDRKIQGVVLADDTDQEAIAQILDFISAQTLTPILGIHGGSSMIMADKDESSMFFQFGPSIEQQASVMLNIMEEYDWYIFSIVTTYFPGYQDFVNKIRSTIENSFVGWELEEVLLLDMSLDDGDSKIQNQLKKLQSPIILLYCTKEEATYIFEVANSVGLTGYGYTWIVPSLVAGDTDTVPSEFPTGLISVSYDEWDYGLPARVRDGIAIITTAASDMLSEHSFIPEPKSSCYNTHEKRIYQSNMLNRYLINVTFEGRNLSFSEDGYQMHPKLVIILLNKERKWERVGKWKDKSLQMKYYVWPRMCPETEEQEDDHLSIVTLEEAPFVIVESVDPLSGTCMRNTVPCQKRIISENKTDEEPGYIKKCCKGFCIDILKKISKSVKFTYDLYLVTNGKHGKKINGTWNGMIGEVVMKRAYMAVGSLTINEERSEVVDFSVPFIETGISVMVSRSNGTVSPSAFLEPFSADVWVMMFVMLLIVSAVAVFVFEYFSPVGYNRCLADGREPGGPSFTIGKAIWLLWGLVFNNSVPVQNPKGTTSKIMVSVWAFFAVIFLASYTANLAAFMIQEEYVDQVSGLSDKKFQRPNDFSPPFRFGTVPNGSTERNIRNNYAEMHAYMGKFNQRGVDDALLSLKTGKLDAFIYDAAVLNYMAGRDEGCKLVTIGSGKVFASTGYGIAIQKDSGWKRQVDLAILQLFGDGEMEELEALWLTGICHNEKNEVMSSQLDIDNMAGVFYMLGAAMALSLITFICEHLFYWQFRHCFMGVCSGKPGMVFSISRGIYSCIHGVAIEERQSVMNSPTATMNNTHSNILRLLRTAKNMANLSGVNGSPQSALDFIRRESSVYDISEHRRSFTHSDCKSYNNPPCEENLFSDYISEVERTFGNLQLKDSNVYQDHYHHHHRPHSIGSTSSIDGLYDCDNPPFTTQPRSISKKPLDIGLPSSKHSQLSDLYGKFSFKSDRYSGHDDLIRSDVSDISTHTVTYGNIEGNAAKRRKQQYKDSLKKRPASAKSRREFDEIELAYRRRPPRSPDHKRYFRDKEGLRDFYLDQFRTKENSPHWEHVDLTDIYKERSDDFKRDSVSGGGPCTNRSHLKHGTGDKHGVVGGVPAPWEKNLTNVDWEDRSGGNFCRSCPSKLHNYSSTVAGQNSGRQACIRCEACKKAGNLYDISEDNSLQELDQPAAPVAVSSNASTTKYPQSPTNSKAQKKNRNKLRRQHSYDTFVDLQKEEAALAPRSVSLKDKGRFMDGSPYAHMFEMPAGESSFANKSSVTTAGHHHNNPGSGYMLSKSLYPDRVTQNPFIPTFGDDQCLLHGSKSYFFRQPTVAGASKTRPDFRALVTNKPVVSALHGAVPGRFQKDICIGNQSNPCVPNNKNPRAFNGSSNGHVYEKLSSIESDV

[3] = Total clearance in Sprague-Dawley rat at 0.5 mg/kg, iv dosed via cassette dosing; assay type: ADME, organism-based; settings: in vivo
[4] = Oral bioavailability in Sprague-Dawley rat at 1 mg/kg dosed via cassette dosing; assay type: ADME, organism-based; settings: in vivo
[5] = […] coefficient, ratio of total drug level in brain to plasma in Sprague-Dawley rat at 0.5 mg/kg, iv dosed via cassette dosing measured after 0.5 hrs; assay type: ADME, organism-based; settings: brain and plasma
Rattus norvegicus = assay: Analgesic activity in rat model of partial sciatic nerve ligation model assessed as increase in pain threshold at 2.5 to 10 mg/kg, po measured after 3 hrs by Von Frey filament test; assay type: functional; settings: read-out: MED
hERG (KCNH2) = hERG (KCNH2) (Homo sapiens, UniProt Q12809); assay: Inhibition of human ERG expressed in HEK293 cells at 1 uM; assay type: cell-based; settings: HEK293 cells expressing human ERG
Sequence of hERG (KCNH2) (Q12809 whole entry): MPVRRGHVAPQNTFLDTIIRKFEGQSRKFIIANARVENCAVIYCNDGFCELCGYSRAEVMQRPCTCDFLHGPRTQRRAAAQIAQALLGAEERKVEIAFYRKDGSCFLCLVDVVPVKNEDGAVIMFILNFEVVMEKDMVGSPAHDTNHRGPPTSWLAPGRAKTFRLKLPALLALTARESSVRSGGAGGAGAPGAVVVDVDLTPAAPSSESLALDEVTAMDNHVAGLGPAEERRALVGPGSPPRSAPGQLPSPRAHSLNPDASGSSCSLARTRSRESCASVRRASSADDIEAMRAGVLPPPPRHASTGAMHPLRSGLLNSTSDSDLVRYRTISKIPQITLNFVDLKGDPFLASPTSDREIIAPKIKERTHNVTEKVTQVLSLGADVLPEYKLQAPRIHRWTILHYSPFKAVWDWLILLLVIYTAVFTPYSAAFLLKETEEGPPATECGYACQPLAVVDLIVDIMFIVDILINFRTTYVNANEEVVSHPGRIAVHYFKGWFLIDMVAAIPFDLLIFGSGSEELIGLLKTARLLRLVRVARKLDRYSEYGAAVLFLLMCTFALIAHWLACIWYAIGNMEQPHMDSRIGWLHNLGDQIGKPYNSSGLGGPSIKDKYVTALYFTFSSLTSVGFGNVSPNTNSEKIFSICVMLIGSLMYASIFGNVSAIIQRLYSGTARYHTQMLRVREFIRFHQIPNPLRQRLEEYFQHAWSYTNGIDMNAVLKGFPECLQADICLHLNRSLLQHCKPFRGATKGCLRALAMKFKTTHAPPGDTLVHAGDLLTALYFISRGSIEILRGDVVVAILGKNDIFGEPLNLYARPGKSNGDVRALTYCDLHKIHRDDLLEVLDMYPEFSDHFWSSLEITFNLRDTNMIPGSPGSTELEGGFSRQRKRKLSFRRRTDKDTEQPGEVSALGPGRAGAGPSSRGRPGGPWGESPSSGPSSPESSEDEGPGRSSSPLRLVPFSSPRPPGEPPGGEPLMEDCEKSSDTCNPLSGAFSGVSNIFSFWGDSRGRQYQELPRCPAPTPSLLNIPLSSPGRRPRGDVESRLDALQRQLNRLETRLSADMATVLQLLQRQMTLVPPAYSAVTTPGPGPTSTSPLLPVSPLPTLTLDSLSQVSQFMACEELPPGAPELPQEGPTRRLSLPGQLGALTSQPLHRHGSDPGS

SMILES | pIC50 [1] | pIC50 [2] | clearance [3] [mL/min/kg] | bioavailability [4] [%] | Kp at 0.5 h [5] | minimal effective dose (Rattus norvegicus) [mg/kg] | inhibition at 1 µM (hERG (KCNH2)) [%]
O=C(c1cc(-c2ccc(=O)[nH]c2)on1)N1CCC(Cc2ccccc2)CC1 | 7.20 | 7.20 | 19.3 | 18.4 | 0.37 | – | –
C[C@@H]1CN(c2ccc(Cl)c(F)c2)CCN1C(=O)C(=O)Nc1ccc2[nH]c(=O)oc2c1 | 7.90 | 8.70 | 1.37 | 30.4 | 0.99 | 5 | 29
O=C(Nc1ccc2[nH]c(=O)oc2c1)C(=O)N1CCN(c2ccccc2)CC1 | < 6.00 | – | – | – | – | – | –
C[C@H]1CN(C(=O)C(=O)Nc2ccc3[nH]c(=O)oc3c2)CCN1c1ccc(Cl)cc1 | 6.20 | 7.00 | – | – | – | – | –
C[C@@H]1CN(C(=O)C(=O)Nc2ccc3[nH]c(=O)oc3c2)CCN1c1ccc(F)c(F)c1 | 7.20 | 8.00 | 15.9 | 25.3 | 1.89 | – | –
O=C(c1cc(-c2ccc(=O)[nH]c2)on1)N1CCN(Cc2ccc(Cl)cc2)CC1 | < 6.00 | – | – | – | – | – | –
O=C(Nc1ccc2[nH]c(=O)oc2c1)C(=O)N1CCN(c2ccc(F)c(Cl)c2)CC1 | 7.50 | 8.00 | 18.3 | 24.6 | 1.24 | – | –
O=C1Cc2cc(NC(=O)C(=O)N3CCN(c4ccc(Cl)cc4)CC3)ccc2N1 | < 6.00 | – | – | – | – | – | –
C[C@@H]1CN(C(=O)C(=O)Nc2ccc3[nH]c(=O)oc3c2)CCN1c1ccc(Cl)cc1 | 7.20 | 8.20 | 15.6 | 52.6 | 1.85 | 10 | 25
O=C(Nc1ccc2[nH]c(=O)oc2c1)C(=O)N1CCN(c2ccc(Cl)cc2)CC1 | 7.80 | – | 7.2 | 17.8 | 0.53 | – | –
O=C(c1cc(-c2ccc(=O)[nH]c2)on1)N1CCN(c2ccc(Cl)cc2)CC1 | < 6.00 | – | – | – | – | – | –
C[C@@H]1CN(c2ccc(Cl)cc2)CCN1C(=O)C(=O)Nc1ccc2[nH]c(=O)oc2c1 | 7.50 | 8.20 | 5.4 | 130 | 0.95 | 10 | 36
O=C(c1cc(-c2cc[nH]n2)on1)N1CCC(Cc2ccc(Cl)cc2)CC1 | 7.20 | 7.40 | 29.2 | 0.6 | 3.27 | – | –
O=C(Nc1ccc2[nH]c(=O)oc2c1)C(=O)N1CCN(c2cc(F)cc(F)c2)CC1 | 6.80 | 7.00 | – | – | – | – | –
C[C@@H]1CN(C(=O)C(=O)Nc2ccc3[nH]c(=O)oc3c2)CCN1c1ccc(Cl)c(F)c1 | 7.30 | 8.50 | 6 | 32 | 1.19 | 2.5 | 10
O=C(c1cc(-c2ccc(=O)[nH]c2)on1)N1CCC(Cc2ccc(F)cc2)CC1 | 7.30 | 7.40 | 19.7 | 18.4 | 0.5 | – | –

SMILES | pIC50 [1] | pIC50 [2] | clearance [3] [mL/min/kg] | bioavailability [4] [%] | Kp at 0.5 h [5] | minimal effective dose (Rattus norvegicus) [mg/kg] | inhibition at 1 µM (hERG (KCNH2)) [%]
O=C1CCc2cc(NC(=O)C(=O)N3CCN(c4ccc(Cl)cc4)CC3)ccc2N1 | < 6.00 | – | – | – | – | – | –
COc1ccc(N2CCN(C(=O)C(=O)Nc3ccc4[nH]c(=O)oc4c3)CC2)cc1F | 7.80 | 7.80 | 101 | 0.6 | 3.17 | – | –
O[C@]1(Cc2cc(-c3cn[nH]c3)on2)CC[C@@H](Cc2ccc(C(F)(F)F)cc2)CC1 | 7.00 | 7.90 | 4 | 67.5 | 2.66 | – | –
COc1ccc(N2CCN(C(=O)C(=O)Nc3ccc4[nH]c(=O)oc4c3)CC2)cc1 | 6.60 | 6.70 | – | – | – | – | –
O=C(c1cc(-c2cc[nH]n2)on1)N1CCC(Cc2ccc(F)cc2)CC1 | 7.10 | 7.20 | – | – | – | – | –
O=C(Nc1ccc2[nH]c(=O)oc2c1)C(=O)N1CCN(c2ccc(F)c(F)c2)CC1 | 7.70 | 8.00 | 4 | 13 | 0.82 | – | –
O=C(Nc1ccc2[nH]c(=O)oc2c1)C(=O)N1CCN(c2ccc(Cl)c(F)c2)CC1 | 7.90 | – | 5.6 | 28.2 | 0.79 | – | –
O=C(c1cc(-c2cc[nH]n2)on1)N1CCC(Cc2ccccc2)CC1 | 7.10 | 7.30 | 71.6 | 0.2 | 3.89 | – | –
C[C@@H]1CN(c2ccc(F)c(F)c2)CCN1C(=O)C(=O)Nc1ccc2[nH]c(=O)oc2c1 | 7.30 | 8.20 | 5.6 | 118 | 0.67 | – | –
O=C(Nc1ccc2[nH]c(=O)oc2c1)C(=O)N1CCN(c2ccc(F)cc2)CC1 | 6.90 | 6.90 | 11.1 | 39.3 | – | – | –
O=C(c1cc(-c2ccc(=O)[nH]c2)on1)N1CCC(Cc2ccc(Cl)cc2)CC1 | 7.60 | 8.00 | 5.4 | 9.3 | 0.38 | – | –
O=C(Nc1ccc2[nH]c(=O)oc2c1)C(=O)N1CCN(c2ccc(C(F)(F)F)c(F)c2)CC1 | 7.80 | 9.00 | 5.6 | 8.7 | 0.65 | – | –
C[C@H]1CN(c2ccc(Cl)cc2)CCN1C(=O)C(=O)Nc1ccc2[nH]c(=O)oc2c1 | < 6.00 | – | – | – | – | – | –
O=C(Nc1ccc2[nH]c(=O)oc2c1)C(=O)N1CCN(Cc2ccc(Cl)cc2)CC1 | 6.30 | 7.20 | 6.8 | 7.4 | 0.41 | – | –
O=C(Nc1ccc2[nH]c(=O)oc2c1)C(=O)N1CCN(c2ccc(C(F)(F)F)cc2)CC1 | 7.60 | 8.20 | 15.1 | 24.8 | 2.99 | – | –
